Consider two compounds from patent publication US20220265694A1, “COMPOSITIONS AND METHODS FOR TREATING AN INFECTION” (CMPD LICENSING, LLC, priority 2016, published 2022).

In assay [1] the test system is Clostridium difficile. The assay is described as follows: Expected efficacy of antibiotic agents. The following applies: expected efficacy against Clostridium difficile; Gram: anaer.
Assay [2] concerns Chlamydia pneumoniae. The assay is described as follows: Expected efficacy of antibiotic agents. The following applies: expected efficacy against Chlamydia pneumoniae; Gram: n/a.
The test system of assay [3] is Mycoplasma pneumoniae. The assay is described as follows: Expected efficacy of antibiotic agents. The following applies: expected efficacy against Mycoplasma pneumoniae; Gram: n/a.
Assay [4] deals with Enterobacter aerogenes. Description: Expected efficacy of antibiotic agents. The following applies: expected efficacy against Enterobacter aerogenes; Gram: neg.
In assay [5] the test system is Klebsiella pneumoniae. Description: Expected efficacy of antibiotic agents. The following applies: expected efficacy against Klebsiella pneumoniae; Gram: neg.
Assay [6] has as its system Moraxella catarrhalis. The assay is described as follows: Expected efficacy of antibiotic agents. As to conditions: expected efficacy against Moraxella catarrhalis; Gram: neg.
The subject of assay [7] is Neisseria meningitidis. Description: Expected efficacy of antibiotic agents. As to conditions: expected efficacy against Neisseria meningitidis; Gram: neg.
For assay [8], the system named is Providencia rettgeri. Description: Expected efficacy of antibiotic agents. As to conditions: expected efficacy against Providencia rettgeri; Gram: neg.
For assay [9], the system named is Salmonella typhi. The assay is described as follows: Expected efficacy of antibiotic agents. As to conditions: expected efficacy against Salmonella typhi; Gram: neg.
For assay [10], the system named is Shigella flexneri. Description: Expected efficacy of antibiotic agents. As to conditions: expected efficacy against Shigella flexneri; Gram: neg.
Assay [11] has as its system Shigella sonnei. The assay is described as follows: Expected efficacy of antibiotic agents. As to conditions: expected efficacy against Shigella sonnei; Gram: neg.
Assay [12] concerns Enterococcus faecium. Description: Expected efficacy of antibiotic agents. The following applies: expected efficacy against Enterococcus faecium; Gram: pos.
Assay [13] relates to Peptostreptococcus. Description: Expected efficacy of antibiotic agents. The following applies: expected efficacy against Peptostreptococcus; Gram: pos.
The test system of assay [14] is Streptococcus pyogenes. The assay is described as follows: Expected efficacy of antibiotic agents. The following applies: expected efficacy against Streptococcus pyogenes; Gram: pos.
The subject of assay [15] is Bartonella bacilliformis. The assay is described as follows: Expected efficacy of antibiotic agents. As to conditions: expected efficacy against Bartonella bacilliformis; Gram: neg.
The subject of assay [16] is Brucella species.
Assay [17] has as its system Pseudomonas fluorescens. Description: Expected efficacy of antibiotic agents. The following applies: expected efficacy against Pseudomonas fluorescens; Gram: neg.

Structures are written as SMILES.

On to `CO/N=C(\C(=O)N[C@@H]1C(=O)N2C(C(=O)O)=C(CSc3nc(=O)c(=O)[nH]n3C)CS[C@H]12)c1csc(N)n1` [Ceftriaxone], for which the Efficacy entry is “no” in assay [1]; “no” in [2]; “no” in assay [3]; “yes” in [4]; “yes” in assay [5]; “yes” in [6]. Also, the Efficacy entry is recorded as “yes” in assay [7]; “yes” in assay [8]; “yes” in assay [9]; “yes” in [10]; “yes” in [11]; “no” in assay [12]. Besides, the Efficacy result in assay [13] and in assay [14] was “yes” throughout.
As for `CN[C@H](CC(C)C)C(=O)N[C@H]1C(=O)N[C@@H](CC(N)=O)C(=O)N[C@H]2C(=O)N[C@H]3C(=O)N[C@H](C(=O)N[C@H](C(=O)O)c4cc(O)cc(O)c4-c4cc3ccc4O)[C@H](O)c3ccc(c(Cl)c3)Oc3cc2cc(c3O[C@@H]2O[C@H](CO)[C@@H](O)[C@H](O)[C@H]2O[C@H]2C[C@](C)(N)[C@H](O)[C@H](C)O2)Oc2ccc(cc2Cl)[C@H]1O` [Vancomycin], the Efficacy entry in assay [1] was “yes”; in [2], “no”; in assay [3] it was “no”; in assay [15] it was “no”; in assay [16] it was “no”; in assay [4], “no”. The Efficacy result in [5], in [6], in [7], in [8], in assay [17] and in [9] was “no” each time. In addition, the Efficacy result in assay [10] is reported as “no”; in [11], “no”; in assay [12], “yes, not VRE”; in [13], “yes”; in assay [14], “yes”.
